In ChEMBL document CHEMBL1125828 (J Med Chem, 1991):

Key:
[1] = molecular target: GABA B receptor (Rattus norvegicus, UniProt O88871+Q9Z0U4); assay: Displacement of [3H]baclofen from gamma-aminobutyric-acid B receptor; type: protein-complex assay
[2] = molecular target: GABA-A receptor; anion channel; assay: Inhibition of [3H]GABA binding to gamma-aminobutyric-acid A (GABA-A) receptor; type: protein-complex assay, Rattus norvegicus

GABA B receptor, sequence (Q9Z0U4 whole entry): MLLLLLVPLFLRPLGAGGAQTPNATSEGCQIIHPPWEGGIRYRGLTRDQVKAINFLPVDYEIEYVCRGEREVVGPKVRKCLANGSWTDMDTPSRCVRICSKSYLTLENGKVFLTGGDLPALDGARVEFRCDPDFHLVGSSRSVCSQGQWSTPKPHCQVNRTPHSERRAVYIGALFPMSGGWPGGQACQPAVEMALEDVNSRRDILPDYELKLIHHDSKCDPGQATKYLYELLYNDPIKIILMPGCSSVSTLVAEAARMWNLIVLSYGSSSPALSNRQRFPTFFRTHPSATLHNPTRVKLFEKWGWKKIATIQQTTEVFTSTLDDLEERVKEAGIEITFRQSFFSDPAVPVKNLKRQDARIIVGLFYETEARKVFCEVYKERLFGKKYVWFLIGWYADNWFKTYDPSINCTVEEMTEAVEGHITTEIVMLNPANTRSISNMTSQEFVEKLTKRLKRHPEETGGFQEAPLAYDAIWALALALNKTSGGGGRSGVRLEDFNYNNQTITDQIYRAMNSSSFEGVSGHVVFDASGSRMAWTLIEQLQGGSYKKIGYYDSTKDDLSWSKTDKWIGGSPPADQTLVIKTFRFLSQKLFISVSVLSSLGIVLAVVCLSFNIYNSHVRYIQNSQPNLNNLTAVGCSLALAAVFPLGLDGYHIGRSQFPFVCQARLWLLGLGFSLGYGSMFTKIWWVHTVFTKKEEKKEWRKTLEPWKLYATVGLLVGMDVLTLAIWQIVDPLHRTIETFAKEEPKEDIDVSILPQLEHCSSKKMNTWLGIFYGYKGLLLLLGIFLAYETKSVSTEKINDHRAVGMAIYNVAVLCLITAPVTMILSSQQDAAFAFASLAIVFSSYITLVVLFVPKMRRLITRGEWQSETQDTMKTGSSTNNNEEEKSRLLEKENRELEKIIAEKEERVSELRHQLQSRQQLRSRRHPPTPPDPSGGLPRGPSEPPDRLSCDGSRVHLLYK
GABA B receptor, sequence (O88871 whole entry): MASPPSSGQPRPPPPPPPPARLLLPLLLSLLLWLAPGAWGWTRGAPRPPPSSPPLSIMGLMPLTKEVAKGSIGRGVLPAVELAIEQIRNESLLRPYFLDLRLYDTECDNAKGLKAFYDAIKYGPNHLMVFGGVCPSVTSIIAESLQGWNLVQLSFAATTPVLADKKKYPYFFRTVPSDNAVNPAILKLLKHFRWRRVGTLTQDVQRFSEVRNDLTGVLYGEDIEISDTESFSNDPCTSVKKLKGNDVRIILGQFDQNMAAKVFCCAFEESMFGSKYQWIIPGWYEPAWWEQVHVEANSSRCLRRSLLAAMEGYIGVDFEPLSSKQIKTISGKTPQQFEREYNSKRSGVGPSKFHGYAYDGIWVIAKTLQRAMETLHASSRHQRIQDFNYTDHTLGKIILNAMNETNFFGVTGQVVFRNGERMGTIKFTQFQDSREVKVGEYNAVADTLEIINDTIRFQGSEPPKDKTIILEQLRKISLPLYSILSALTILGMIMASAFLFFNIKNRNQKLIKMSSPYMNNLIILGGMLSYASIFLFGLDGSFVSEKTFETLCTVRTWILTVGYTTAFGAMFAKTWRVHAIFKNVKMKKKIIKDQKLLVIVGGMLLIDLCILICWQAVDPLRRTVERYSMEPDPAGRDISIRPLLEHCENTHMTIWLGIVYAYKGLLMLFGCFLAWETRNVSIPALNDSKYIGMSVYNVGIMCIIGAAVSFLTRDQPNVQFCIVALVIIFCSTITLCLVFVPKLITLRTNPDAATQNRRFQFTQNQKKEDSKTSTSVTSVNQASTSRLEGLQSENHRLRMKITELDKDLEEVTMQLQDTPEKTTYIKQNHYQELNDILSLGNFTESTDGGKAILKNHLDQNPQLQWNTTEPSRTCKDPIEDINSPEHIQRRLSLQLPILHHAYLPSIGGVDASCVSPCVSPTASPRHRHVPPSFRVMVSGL

Which results are given for NCC(CC(=O)O)c1ccc(Cl)cc1Cl (configuration not stated)?
IC50 [1]: 11 µM; IC50 [2]: > 100 µM

What does the source list for NCC1(CC(=O)O)CCCc2ccccc21 (configuration not stated)?
IC50 [1]: > 100 µM; IC50 [2]: > 100 µM

How did the IC50 [1] turn out when NCC(CC(=O)O)c1c(Cl)cccc1Cl (configuration not stated) was run?
Its IC50 is > 100 µM.

What about the IC50 [2] of the same compound?
The IC50 was > 100 µM.

How did the IC50 [1] turn out when NCC1(CC(=O)O)CCc2ccccc21 (configuration not stated) was run?
Its IC50 is > 100 µM.

What about the IC50 [2] of the same compound?
The IC50 was > 100 µM.

How did the IC50 [1] turn out when NCC1(CC(=O)O)Cc2ccccc21 (configuration not stated) was run?
Its IC50 is > 100 µM.

And the IC50 [2]?
The IC50 was > 100 µM.

Which IC50 [1] does the source give for NCC1(CC(=O)O)CCc2cc(Cl)ccc21 (configuration not stated) here?
The IC50 was > 100 µM.

What about the IC50 [2] of the same compound?
Its IC50 is > 100 µM.
